Patent US20230365546A1, “5-SUBSTITUTED INDOLE 3-AMIDE DERIVATIVES, PREPARATION METHOD AND USE THEREOF” (ORIGIANT PHARMACEUTICAL CO., LTD, priority 2020, published 2023)

How the values were obtained:
Test in all cases: Kinase Profiler 10 μM panel
HIPK4(h) = HIPK4(h) (Homo sapiens (Human), UniProt Q8NE63)
Description: (§1) In vitro kinase assays were conducted using Kinase Profiler services provided by Eurofins. The experimental method was as follows: the small molecule compound to be tested (0.001-10 μM), the protein kinase to be tested were incubated with a buffer containing substrate, 10 mM magnesium acetate, and [γ-^33P-ATP], the reaction was started by adding Mg\TPmix, after incubation for a period of time at room temperature, a 3% phosphate solution was added to the buffer to stop the reaction. Subsequently, 10 μL of the reaction mixture was quantitatively pipetted onto P30 filter paper, which was washed three times with 75 mM phosphate solution and then once with methanol. The P30 filter paper was air-dried and scintillation fluid was added for scintillation counting.

MST4(h) = MST4(h) (Homo sapiens (Human), UniProt Q9P289)
PKCι(h) = PKCι(h) (Homo sapiens (Human), UniProt P41743)
Description: as §1

Fer(h) = Fer(h) (Homo sapiens (Human), UniProt P16591)
Description: as §1

TGFBR2(h) = TGFBR2(h) (Homo sapiens (Human), UniProt P37173)
Description: as §1

Met(M1268T)(h) = Met(M1268T)(h) (Homo sapiens (Human), UniProt P08581, M1250T)
Description: as §1

HRI(h) = HRI(h) (Homo sapiens (Human), UniProt Q9BQI3)
Description: as §1

IRR(h) = IRR(h) (Homo sapiens (Human), UniProt P14616)
Description: as §1

CDK12/cyclinK(h) = CDK12/cyclinK(h) (Homo sapiens (Human), UniProt Q9NYV4)
Description: as §1

PDGFRβ(h) = PDGFRβ(h) (Homo sapiens (Human), UniProt P09619)
Description: as §1

NEK1(h) = NEK1(h) (Homo sapiens (Human), UniProt Q96PY6)
Description: as §1

PRKG2(h) = PRKG2(h) (Homo sapiens (Human), UniProt Q13237)
Description: as §1

PIP5K1g(h) = PIP5K1g(h) (Homo sapiens (Human), UniProt O60331)
Description: as §1

JNK2α2(h) = JNK2α2(h) (Homo sapiens (Human), UniProt P45984)
Description: as §1

EphB4(h) = EphB4(h) (Homo sapiens (Human), UniProt P54760)
Description: as §1

LIMK1(h) = LIMK1(h) (Homo sapiens (Human), UniProt P53667)
Description: as §1

CHK2(R145W)(h) = CHK2(R145W)(h) (Homo sapiens (Human), UniProt O96017, R145W)
Description: as §1

TRB2(h) = TRB2(h) (Homo sapiens (Human), UniProt Q92519)
Description: as §1

PKCβI(h) = PKCβI(h) (Homo sapiens (Human), UniProt P05771)
Description: as §1

FAK(h) = FAK(h) (Homo sapiens (Human), UniProt Q05397)
Description: as §1

[1] = target: PI3 Kinase (p110a(H1047R)/p85a)(h) (Homo sapiens (Human), UniProt P42336, H1047R)
Description: as §1

CDKL1(h) = CDKL1(h) (Homo sapiens (Human), UniProt Q00532)
Description: as §1

ATM(h) = ATM(h) (Homo sapiens (Human), UniProt Q13315)
Description: as §1

PrKX(h) = PrKX(h) (Homo sapiens (Human), UniProt P51817)
Description: as §1

CK1δ(h) = CK1δ(h) (Homo sapiens (Human), UniProt P48730)
Description: as §1

MAPK2(h) = MAPK2(h) (Homo sapiens (Human), UniProt P28482)
Description: as §1

PKCδ(h) = PKCδ(h) (Homo sapiens (Human), UniProt Q05655)
Description: as §1

WNK4(h) = WNK4(h) (Homo sapiens (Human), UniProt Q96J92)
Description: as §1

p70S6K(h) = p70S6K(h) (Homo sapiens (Human), UniProt P23443)
Description: as §1

STK25(h) = STK25(h) (Homo sapiens (Human), UniProt O00506)
Description: as §1

[2] = target: PI3 Kinase (p110a(E545K)/p85a)(m) (Mus musculus (Mouse), UniProt P42337, E545K)
Description: as §1

[3] = target: PI3 Kinase (p110a/p65a)(h) (Homo sapiens (Human), UniProt P42336)
Description: as §1

TGFBR1(h) = TGFBR1(h) (Homo sapiens (Human), UniProt P36897)
Description: as §1

Chain of PDGFRβ(h) (P09619 33-1106): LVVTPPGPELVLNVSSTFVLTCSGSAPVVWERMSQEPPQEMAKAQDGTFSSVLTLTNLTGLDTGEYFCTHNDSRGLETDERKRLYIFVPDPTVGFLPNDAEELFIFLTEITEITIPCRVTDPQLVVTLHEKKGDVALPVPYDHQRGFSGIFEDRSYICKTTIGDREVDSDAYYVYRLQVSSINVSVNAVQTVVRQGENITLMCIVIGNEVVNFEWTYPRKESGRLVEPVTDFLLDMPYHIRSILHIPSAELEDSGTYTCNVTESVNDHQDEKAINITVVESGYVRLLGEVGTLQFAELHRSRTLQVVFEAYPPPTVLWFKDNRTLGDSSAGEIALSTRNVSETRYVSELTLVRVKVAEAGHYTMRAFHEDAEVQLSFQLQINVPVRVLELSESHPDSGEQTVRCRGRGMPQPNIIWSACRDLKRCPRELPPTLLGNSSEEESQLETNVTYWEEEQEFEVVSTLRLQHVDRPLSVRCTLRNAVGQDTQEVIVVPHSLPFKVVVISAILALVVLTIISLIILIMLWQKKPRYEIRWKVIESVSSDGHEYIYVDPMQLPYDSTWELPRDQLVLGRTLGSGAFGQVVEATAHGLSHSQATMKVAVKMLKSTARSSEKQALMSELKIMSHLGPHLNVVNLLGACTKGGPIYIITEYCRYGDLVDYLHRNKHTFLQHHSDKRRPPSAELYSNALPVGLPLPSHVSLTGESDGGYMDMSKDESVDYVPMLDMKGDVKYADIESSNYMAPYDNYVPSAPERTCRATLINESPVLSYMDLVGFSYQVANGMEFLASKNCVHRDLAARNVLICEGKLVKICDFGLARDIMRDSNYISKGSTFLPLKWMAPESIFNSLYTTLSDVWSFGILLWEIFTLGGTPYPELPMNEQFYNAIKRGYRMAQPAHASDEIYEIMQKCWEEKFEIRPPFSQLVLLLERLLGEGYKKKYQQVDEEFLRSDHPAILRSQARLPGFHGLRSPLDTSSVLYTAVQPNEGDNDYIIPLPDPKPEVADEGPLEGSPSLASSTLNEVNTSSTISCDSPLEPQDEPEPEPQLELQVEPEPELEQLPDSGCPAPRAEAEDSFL
Chain of CDK12/cyclinK(h) (Q9NYV4 whole entry): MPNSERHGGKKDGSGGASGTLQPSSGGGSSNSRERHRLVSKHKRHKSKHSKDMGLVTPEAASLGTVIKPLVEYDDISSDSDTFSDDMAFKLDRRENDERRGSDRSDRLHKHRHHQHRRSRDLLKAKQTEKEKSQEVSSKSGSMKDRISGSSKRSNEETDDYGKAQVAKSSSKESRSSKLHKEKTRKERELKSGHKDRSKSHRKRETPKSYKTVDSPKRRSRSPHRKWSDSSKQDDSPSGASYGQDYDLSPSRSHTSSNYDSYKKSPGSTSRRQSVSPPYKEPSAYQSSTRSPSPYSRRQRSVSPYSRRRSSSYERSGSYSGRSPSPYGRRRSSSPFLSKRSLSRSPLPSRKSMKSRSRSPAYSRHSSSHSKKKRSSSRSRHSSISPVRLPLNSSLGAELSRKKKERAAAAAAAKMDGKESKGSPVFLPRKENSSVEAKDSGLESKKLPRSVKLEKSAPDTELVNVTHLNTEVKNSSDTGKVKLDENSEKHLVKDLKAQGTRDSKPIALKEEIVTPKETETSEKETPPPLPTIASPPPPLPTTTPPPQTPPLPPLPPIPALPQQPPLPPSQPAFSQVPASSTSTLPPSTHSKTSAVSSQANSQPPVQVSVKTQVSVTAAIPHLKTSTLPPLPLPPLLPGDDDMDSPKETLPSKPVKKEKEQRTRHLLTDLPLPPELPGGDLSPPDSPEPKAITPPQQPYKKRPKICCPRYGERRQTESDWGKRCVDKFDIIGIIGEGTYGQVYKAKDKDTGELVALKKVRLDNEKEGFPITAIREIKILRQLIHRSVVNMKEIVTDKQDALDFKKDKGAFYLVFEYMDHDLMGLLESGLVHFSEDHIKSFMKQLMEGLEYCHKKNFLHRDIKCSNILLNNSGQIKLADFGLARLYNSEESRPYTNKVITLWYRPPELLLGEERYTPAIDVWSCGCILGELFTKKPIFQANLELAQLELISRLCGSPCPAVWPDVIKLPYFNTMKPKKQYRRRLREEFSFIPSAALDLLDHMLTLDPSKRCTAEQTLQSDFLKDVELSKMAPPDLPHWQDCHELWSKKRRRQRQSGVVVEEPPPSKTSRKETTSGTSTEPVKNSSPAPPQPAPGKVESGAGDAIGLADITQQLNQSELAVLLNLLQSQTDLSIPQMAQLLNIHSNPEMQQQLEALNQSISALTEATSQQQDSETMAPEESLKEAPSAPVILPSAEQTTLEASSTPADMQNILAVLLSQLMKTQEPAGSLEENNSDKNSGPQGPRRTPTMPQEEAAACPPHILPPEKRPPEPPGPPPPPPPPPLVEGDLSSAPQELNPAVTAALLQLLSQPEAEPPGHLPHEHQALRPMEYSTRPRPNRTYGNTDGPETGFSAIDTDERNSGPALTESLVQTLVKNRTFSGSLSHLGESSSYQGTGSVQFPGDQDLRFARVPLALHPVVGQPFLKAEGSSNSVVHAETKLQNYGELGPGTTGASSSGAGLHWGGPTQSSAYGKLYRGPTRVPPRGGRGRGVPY
Chain of CDK12/cyclinK(h) (O75909 whole entry partner): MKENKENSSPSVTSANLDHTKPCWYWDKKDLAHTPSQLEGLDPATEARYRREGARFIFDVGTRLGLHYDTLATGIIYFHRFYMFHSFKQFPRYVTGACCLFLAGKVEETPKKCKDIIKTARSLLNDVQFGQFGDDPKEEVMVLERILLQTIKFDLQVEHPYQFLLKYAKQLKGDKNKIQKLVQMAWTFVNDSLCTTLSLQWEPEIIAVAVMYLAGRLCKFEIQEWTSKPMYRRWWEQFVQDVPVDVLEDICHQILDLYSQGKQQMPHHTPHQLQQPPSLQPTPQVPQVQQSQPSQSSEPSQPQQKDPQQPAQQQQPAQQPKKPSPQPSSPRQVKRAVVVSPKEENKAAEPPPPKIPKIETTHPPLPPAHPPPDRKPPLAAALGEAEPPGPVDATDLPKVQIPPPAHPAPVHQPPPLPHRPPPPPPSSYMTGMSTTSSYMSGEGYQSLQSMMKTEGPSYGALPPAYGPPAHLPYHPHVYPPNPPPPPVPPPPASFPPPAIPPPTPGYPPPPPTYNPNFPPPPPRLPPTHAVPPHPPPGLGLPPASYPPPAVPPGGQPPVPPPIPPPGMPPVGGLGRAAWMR
Chain of HIPK4(h) (Q8NE63 whole entry): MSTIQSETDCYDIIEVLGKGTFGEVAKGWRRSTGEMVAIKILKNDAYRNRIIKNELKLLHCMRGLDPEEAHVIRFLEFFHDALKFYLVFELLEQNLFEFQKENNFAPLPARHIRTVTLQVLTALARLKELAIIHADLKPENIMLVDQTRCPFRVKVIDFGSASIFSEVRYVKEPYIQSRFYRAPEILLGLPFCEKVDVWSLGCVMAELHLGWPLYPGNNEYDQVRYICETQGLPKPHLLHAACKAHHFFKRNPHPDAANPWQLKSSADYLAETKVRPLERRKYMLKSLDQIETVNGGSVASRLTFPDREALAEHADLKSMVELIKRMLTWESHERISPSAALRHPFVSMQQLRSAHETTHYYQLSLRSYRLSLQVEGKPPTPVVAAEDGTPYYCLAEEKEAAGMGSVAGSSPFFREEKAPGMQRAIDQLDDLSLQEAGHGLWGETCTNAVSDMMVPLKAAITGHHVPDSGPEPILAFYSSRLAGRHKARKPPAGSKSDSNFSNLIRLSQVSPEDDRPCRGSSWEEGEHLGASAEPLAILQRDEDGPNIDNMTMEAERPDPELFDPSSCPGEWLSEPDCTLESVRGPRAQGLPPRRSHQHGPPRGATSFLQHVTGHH
Chain of p70S6K(h) (P23443 whole entry): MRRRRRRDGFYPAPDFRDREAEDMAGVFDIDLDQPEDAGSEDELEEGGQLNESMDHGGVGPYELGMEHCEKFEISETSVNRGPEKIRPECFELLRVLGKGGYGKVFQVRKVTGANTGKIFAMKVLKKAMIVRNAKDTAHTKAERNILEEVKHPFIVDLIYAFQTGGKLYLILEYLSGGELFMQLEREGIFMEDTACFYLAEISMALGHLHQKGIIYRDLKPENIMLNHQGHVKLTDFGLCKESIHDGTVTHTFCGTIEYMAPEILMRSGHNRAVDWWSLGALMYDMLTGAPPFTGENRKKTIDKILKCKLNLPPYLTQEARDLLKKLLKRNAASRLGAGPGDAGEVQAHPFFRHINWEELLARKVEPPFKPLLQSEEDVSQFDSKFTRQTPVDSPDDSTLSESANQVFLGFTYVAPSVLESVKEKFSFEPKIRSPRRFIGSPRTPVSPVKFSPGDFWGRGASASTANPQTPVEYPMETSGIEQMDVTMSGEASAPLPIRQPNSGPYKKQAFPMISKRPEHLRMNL
Chain of CDKL1(h) (Q00532 whole entry): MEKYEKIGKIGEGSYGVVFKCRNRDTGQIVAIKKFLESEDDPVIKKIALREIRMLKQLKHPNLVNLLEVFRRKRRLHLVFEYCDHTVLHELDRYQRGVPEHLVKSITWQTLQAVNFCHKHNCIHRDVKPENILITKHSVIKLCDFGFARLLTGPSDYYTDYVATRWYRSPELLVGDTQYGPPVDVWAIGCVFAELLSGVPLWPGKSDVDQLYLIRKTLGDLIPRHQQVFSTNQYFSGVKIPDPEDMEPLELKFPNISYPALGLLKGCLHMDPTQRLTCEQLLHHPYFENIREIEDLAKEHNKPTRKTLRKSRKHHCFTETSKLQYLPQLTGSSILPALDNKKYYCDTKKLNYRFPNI
Chain of MST4(h) (Q9P289 whole entry): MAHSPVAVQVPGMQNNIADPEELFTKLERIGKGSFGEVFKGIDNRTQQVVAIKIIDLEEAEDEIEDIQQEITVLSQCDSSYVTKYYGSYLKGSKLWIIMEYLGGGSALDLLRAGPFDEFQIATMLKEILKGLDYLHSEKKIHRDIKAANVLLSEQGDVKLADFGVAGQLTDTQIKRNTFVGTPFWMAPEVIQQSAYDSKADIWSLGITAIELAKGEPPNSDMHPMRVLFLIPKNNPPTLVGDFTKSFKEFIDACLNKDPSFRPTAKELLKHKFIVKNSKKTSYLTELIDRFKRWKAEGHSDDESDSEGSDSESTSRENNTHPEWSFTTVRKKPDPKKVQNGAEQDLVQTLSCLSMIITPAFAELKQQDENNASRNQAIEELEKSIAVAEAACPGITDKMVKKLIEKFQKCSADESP

C[C@H](NC(=O)c1c[nH]c2ccc(-c3ccc4nc(NC(=O)C5CC5)sc4c3)cc12)c1cccc(F)c1 [Compound 34, (S)-5-(2-(cyclopropanecarboxamido)benzo[d]thiazol-6-yl)-N-(1-(3-fluorophenyl)ethyl)-1H-indole-3-carboxamide]
Inhibition ratio (HIPK4(h)): 95%
Inhibition ratio (MST4(h)): 11%
Inhibition ratio (PKCι(h)): −4%
Inhibition ratio (Fer(h)): 62%
Inhibition ratio (TGFBR2(h)): 25%
Inhibition ratio (Met(M1268T)(h)): 93%
Inhibition ratio (HRI(h)): −3%
Inhibition ratio (IRR(h)): 50%
Inhibition ratio (CDK12/cyclinK(h)): 21%
Inhibition ratio (PDGFRβ(h)): 9%
Inhibition ratio (NEK1(h)): 18%
Inhibition ratio (PRKG2(h)): 3%
Inhibition ratio (PIP5K1g(h)): 18%
Inhibition ratio (JNK2α2(h)): 25%
Inhibition ratio (EphB4(h)): 11%
Inhibition ratio (LIMK1(h)): 14%
Inhibition ratio (CHK2(R145W)(h)): 37%
Inhibition ratio (TRB2(h)): 65%
Inhibition ratio (PKCβI(h)): 27%
Inhibition ratio (FAK(h)): 33%
Inhibition ratio [1]: 34%
Inhibition ratio (CDKL1(h)): 50%
Inhibition ratio (ATM(h)): 3%
Inhibition ratio (PrKX(h)): 6%
Inhibition ratio (CK1δ(h)): 33%
Inhibition ratio (MAPK2(h)): 11%
Inhibition ratio (PKCδ(h)): 7%
Inhibition ratio (WNK4(h)): 17%
Inhibition ratio (p70S6K(h)): 25%
Inhibition ratio (STK25(h)): 2%
Inhibition ratio [2]: 24%
Inhibition ratio [3]: 55%
Inhibition ratio (TGFBR1(h)): 7%

C[C@H](NC(=O)c1cn(C)c2ccc(-c3ccn4nc(NC(=O)C5CC5)nc4c3)cc12)c1cccc(F)c1 [Compound 94, (S)-5-(2-(cyclopropanecarboxamido)-[1,2,4]triazolo[1,5-a]pyridin-7-yl)-N-(1-(3-fluorophenyl)ethyl)-1-methyl-1H-indole-3-carboxamide]
Inhibition ratio/% (HIPK4(h)): 68%
Inhibition ratio/% (MST4(h)): 12%
Inhibition ratio/% (PKCι(h)): 54%
Inhibition ratio/% (Fer(h)): 10%
Inhibition ratio/% (TGFBR2(h)): −6%
Inhibition ratio/% (Met(M1268T)(h)): −10%
Inhibition ratio/% (HRI(h)): −4%
Inhibition ratio/% (IRR(h)): 33%
Inhibition ratio/% (CDK12/cyclinK(h)): −8%
Inhibition ratio/% (PDGFRβ(h)): 49%
Inhibition ratio/% (NEK1(h)): 50%
Inhibition ratio/% (PRKG2(h)): −9%
Inhibition ratio/% (PIP5K1g(h)): −16%
Inhibition ratio/% (JNK2α2(h)): 40%
Inhibition ratio/% (EphB4(h)): 56%
Inhibition ratio/% (LIMK1(h)): −1%
Inhibition ratio/% (CHK2(R145W)(h)): 69%
Inhibition ratio/% (TRB2(h)): −5%
Inhibition ratio/% (PKCβI(h)): 6%
Inhibition ratio/% (FAK(h)): −3%
Inhibition ratio/% [1]: 24%
Inhibition ratio/% (CDKL1(h)): 35%
Inhibition ratio/% (ATM(h)): −15%
Inhibition ratio/% (PrKX(h)): −10%
Inhibition ratio/% (CK1δ(h)): −12%
Inhibition ratio/% (MAPK2(h)): 40%
Inhibition ratio/% (PKCδ(h)): 48%
Inhibition ratio/% (WNK4(h)): 48%
Inhibition ratio/% (p70S6K(h)): −18%
Inhibition ratio/% (STK25(h)): 26%
Inhibition ratio/% [2]: 32%
Inhibition ratio/% [3]: 4%
Inhibition ratio/% (TGFBR1(h)): −3%
